# Source: patent US11891634B2, “PDE5A destabilizing domains” (The Board of Trustees of the Leland Stanford Junior …, priority 2017, dated 2024)
# Columns and labels:
# Format in all cases: cell-based, human
# [1] = system: HCT 116 cells transduced with the PDE5A DD derived GFP constructs; experiment: Response to Vardenafil, GFP expression by FACS in HCT116
# Procedure, shortened: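 HCT116 cells stably carrying lentiviral AcGFP fusions of PDE5A (535-860) mutants, sorted on mCherry, got DMSO or Vardenafil (10 μM, or 0.002–30 μM) for 48 h, and GFP MFI was read by flow cytometry. Basal expression is untreated GFP over parental autofluorescence; the stabilization ratio is treated over untreated MFI.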
# [2] = system: HCT116 cells transduced with the constructs; experiment: Response to Sildenafil, GFP expression by flow cytometry in HCT116; conditions: for MFI / Stabilization ratio with Sildenafil: 48 hours, HCT116
# Procedure, shortened: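 HCT116 cells stably expressing AcGFP-fused destabilizing domains from a lentiviral mCherry-marked vector (sorted on mCherry) were exposed to sildenafil at 0.01–100 μM for 48 hours. GFP mean fluorescence intensity was measured by flow cytometry.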
# [3] = system: HCT 116 cells transduced with the PDE5A DD derived GFP constructs; experiment: Response to Tadalafil, GFP expression by FACS in HCT116; conditions: 48 hours, HCT116
# Procedure, shortened: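 HCT116 cells stably transduced (mCherry-sorted) with lentiviral PDE5A DD–AcGFP constructs, exposed to DMSO or Tadalafil 0.01–100 μM for 48 hrs. GFP mean fluorescence by FACS; stabilization ratio = ligand vs no-ligand signal, basal expression = no-ligand signal vs parental autofluorescence.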
# [4] = DMSO (no Vardenafil), 48 hours, HCT116
# [5] = Vardenafil 0.002 μM vs DMSO, 48 hours, HCT116
# [6] = Vardenafil 0.002 μM, 48 hours, HCT116
# [7] = Vardenafil 0.005 μM, 48 hours, HCT116
# [8] = Vardenafil 0.014 μM vs DMSO, 48 hours, HCT116
# [9] = Vardenafil 0.014 μM, 48 hours, HCT116
# [10] = Vardenafil 0.041 μM vs DMSO, 48 hours, HCT116
# [11] = Vardenafil 0.041 μM, 48 hours, HCT116
# [12] = Vardenafil 0.123 μM vs DMSO, 48 hours, HCT116
# [13] = Vardenafil 0.123 μM, 48 hours, HCT116
# [14] = Vardenafil 0.370 μM vs DMSO, 48 hours, HCT116
# [15] = Vardenafil 0.370 μM, 48 hours, HCT116
# [16] = Vardenafil 1.111 μM vs DMSO, 48 hours, HCT116
# [17] = Vardenafil 1.111 μM, 48 hours, HCT116
# [18] = Vardenafil 3.333 μM vs DMSO, 48 hours, HCT116
# [19] = Vardenafil 3.333 μM, 48 hours, HCT116
# [20] = Vardenafil 10 μM vs DMSO, 48 hours, HCT116
# [21] = Vardenafil 10 μM, 48 hours, HCT116
# [22] = Vardenafil 30 μM, 48 hours, HCT116
substance,measurement,setting,value
"PDE5AC (#69): AcGFP fused to C-terminal DD 535-860 of PDE5A (Q589R, N636S, D687A, D764N, S815C), SEQ ID NO. 30",MFI,[1]; [4],9466
same,Basal,"[1]; Table 15, MFI with DMSO / parental HCT116, Vardenafil experiment",4.84
same,Stabilization ratio with Vardenafil,[1]; [5],1.1
same,MFI,[1]; [6],10817
same,MFI,[1]; [7],13682
same,Stabilization ratio with Vardenafil,[1]; [8],2.9
same,MFI,[1]; [9],27457
same,Stabilization ratio with Vardenafil,[1]; [10],3.4
same,MFI,[1]; [11],32264
same,Stabilization ratio with Vardenafil,[1]; [12],5.3
same,MFI,[1]; [13],49884
same,Stabilization ratio with Vardenafil,[1]; [14],7.9
same,MFI,[1]; [15],74730
same,Stabilization ratio with Vardenafil,[1]; [16],6.6
same,MFI,[1]; [17],62065
same,Stabilization ratio with Vardenafil,[1]; [18],7.0
same,MFI,[1]; [19],66625
same,Stabilization ratio with Vardenafil,[1]; [20],6.8
same,MFI,[1]; [21],64380
same,Stabilization ratio with Vardenafil,"[1]; Vardenafil 30 μM vs DMSO, 48 hours, HCT116",2.4
same,MFI,[1]; [22],22775
same,MFI,[2]; DMSO (no Sildenafil),9575
same,Stabilization ratio with Sildenafil,[2]; Sildenafil 0.01 μM vs DMSO,1.0
same,MFI,[2]; Sildenafil 0.01 μM,9574
same,Stabilization ratio with Sildenafil,[2]; Sildenafil 0.02 μM vs DMSO,1.2
same,MFI,[2]; Sildenafil 0.02 μM,11755
same,Stabilization ratio with Sildenafil,[2]; Sildenafil 0.05 μM vs DMSO,1.2
same,MFI,[2]; Sildenafil 0.05 μM,11944
same,MFI,[2]; Sildenafil 0.14 μM,19733
same,Stabilization ratio with Sildenafil,[2]; Sildenafil 0.41 μM vs DMSO,3.1
same,MFI,[2]; Sildenafil 0.41 μM,30090
same,Stabilization ratio with Sildenafil,[2]; Sildenafil 1.23 μM vs DMSO,4.6
same,MFI,[2]; Sildenafil 1.23 μM,44180
same,Stabilization ratio with Sildenafil,[2]; Sildenafil 3.70 μM vs DMSO,5.5
same,MFI,[2]; Sildenafil 3.70 μM,52782
same,Stabilization ratio with Sildenafil,[2]; Sildenafil 11.11 μM vs DMSO,6.2
same,MFI,[2]; Sildenafil 11.11 μM,59723
same,Stabilization ratio with Sildenafil,[2]; Sildenafil 33.33 μM vs DMSO,6.8
same,MFI,[2]; Sildenafil 33.33 μM,65183
same,Stabilization ratio with Sildenafil,[2]; Sildenafil 100.00 μM vs DMSO,5.4
same,MFI,[2]; Sildenafil 100.00 μM,51774
same,MFI,[3]; DMSO (no Tadalafil),8822
same,Stabilization ratio with Tadalafil,[3]; Tadalafil 0.01 μM vs DMSO,1.1
same,MFI,[3]; Tadalafil 0.01 μM,9337
same,Stabilization ratio with Tadalafil,[3]; Tadalafil 0.02 μM vs DMSO,1.2
same,MFI,[3]; Tadalafil 0.02 μM,10353
same,Stabilization ratio with Tadalafil,[3]; Tadalafil 0.05 μM vs DMSO,1.4
same,MFI,[3]; Tadalafil 0.05 μM,12365
same,MFI,[3]; Tadalafil 0.14 μM,19039
same,Stabilization ratio with Tadalafil,[3]; Tadalafil 0.41 μM vs DMSO,3.7
same,MFI,[3]; Tadalafil 0.41 μM,32821
same,Stabilization ratio with Tadalafil,[3]; Tadalafil 1.23 μM vs DMSO,5.9
same,MFI,[3]; Tadalafil 1.23 μM,52033
same,Stabilization ratio with Tadalafil,[3]; Tadalafil 3.7 μM vs DMSO,7.1
same,MFI,[3]; Tadalafil 3.7 μM,62558
same,Stabilization ratio with Tadalafil,[3]; Tadalafil 11.11 μM vs DMSO,7.9
same,MFI,[3]; Tadalafil 11.11 μM,69440
same,Stabilization ratio with Tadalafil,[3]; Tadalafil 33.33 μM vs DMSO,7.7
same,MFI,[3]; Tadalafil 33.33 μM,68289
same,MFI,[3]; Tadalafil 100 μM,67259
"PDE5AN (#3): N-terminal DD 535-860 of PDE5A (Q589R, K633E, T712S, K852E, K795E), SEQ ID NO. 66, fused to AcGFP",MFI,[1]; [4],8934
same,Stabilization ratio,"[1]; Table 10, 10 μM Vardenafil vs DMSO, 48 hours, HCT116",stabilization ratios similar to those observed for sildenafil
same,Stabilization ratio with Vardenafil,[1]; [5],1.0
same,MFI,[1]; [6],8767
same,MFI,[1]; [7],9620
same,Stabilization ratio with Vardenafil,[1]; [8],1.2
same,MFI,[1]; [9],10487
same,Stabilization ratio with Vardenafil,[1]; [10],1.6
same,MFI,[1]; [11],14086
same,Stabilization ratio with Vardenafil,[1]; [12],2.3
same,MFI,[1]; [13],20568
same,Stabilization ratio with Vardenafil,[1]; [14],4.1
same,MFI,[1]; [15],36786
same,Stabilization ratio with Vardenafil,[1]; [16],7.4
same,MFI,[1]; [17],66543
same,Stabilization ratio with Vardenafil,[1]; [18],11.1
same,MFI,[1]; [19],98986
same,Stabilization ratio with Vardenafil,[1]; [20],13.4
same,MFI,[1]; [21],119591
same,MFI,[1]; [22],131667
same,MFI,[2]; DMSO (no Sildenafil),9835
same,Stabilization ratio with Sildenafil,[2]; Sildenafil 0.01 μM vs DMSO,1.0
same,MFI,[2]; Sildenafil 0.01 μM,9888
same,Stabilization ratio with Sildenafil,[2]; Sildenafil 0.02 μM vs DMSO,1.0
same,MFI,[2]; Sildenafil 0.02 μM,10157
same,Stabilization ratio with Sildenafil,[2]; Sildenafil 0.05 μM vs DMSO,1.0
same,MFI,[2]; Sildenafil 0.05 μM,9952
same,Stabilization ratio with Sildenafil,[2]; Sildenafil 0.14 μM vs DMSO,1.1
same,MFI,[2]; Sildenafil 0.14 μM,10475
same,Stabilization ratio with Sildenafil,[2]; Sildenafil 0.41 μM vs DMSO,1.3
same,MFI,[2]; Sildenafil 0.41 μM,12302
same,Stabilization ratio with Sildenafil,[2]; Sildenafil 1.23 μM vs DMSO,1.7
same,MFI,[2]; Sildenafil 1.23 μM,16826
same,Stabilization ratio with Sildenafil,[2]; Sildenafil 3.70 μM vs DMSO,2.8
same,MFI,[2]; Sildenafil 3.70 μM,27542
same,Stabilization ratio with Sildenafil,[2]; Sildenafil 11.11 μM vs DMSO,5.4
same,MFI,[2]; Sildenafil 11.11 μM,52641
same,Stabilization ratio with Sildenafil,[2]; Sildenafil 33.33 μM vs DMSO,8.7
same,MFI,[2]; Sildenafil 33.33 μM,85509
same,MFI,[2]; Sildenafil 100.00 μM,103938
same,Basal expression,"[2]; Table 26, MFI with DMSO / parental HCT116, Sildenafil experiment",7.6
same,MFI,[3]; DMSO (no Tadalafil),6944
same,expression of GFP (MFI) with increasing doses of Tadalafil,[3]; Tadalafil 0.01 μM to 100 μM,Tadalafil dose dependent increase in the MFI
same,Stabilization ratio with Tadalafil,[3]; Tadalafil 0.01 μM vs DMSO,1.0
same,MFI,[3]; Tadalafil 0.01 μM,6781
same,Stabilization ratio with Tadalafil,[3]; Tadalafil 0.02 μM vs DMSO,1.0
same,MFI,[3]; Tadalafil 0.02 μM,6685
same,Stabilization ratio with Tadalafil,[3]; Tadalafil 0.05 μM vs DMSO,1.0
same,MFI,[3]; Tadalafil 0.05 μM,7013
same,Stabilization ratio with Tadalafil,[3]; Tadalafil 0.14 μM vs DMSO,1.0
same,MFI,[3]; Tadalafil 0.14 μM,6988
same,Stabilization ratio with Tadalafil,[3]; Tadalafil 0.41 μM vs DMSO,1.1
same,MFI,[3]; Tadalafil 0.41 μM,7648
same,Stabilization ratio with Tadalafil,[3]; Tadalafil 1.23 μM vs DMSO,1.3
same,MFI,[3]; Tadalafil 1.23 μM,8973
same,Stabilization ratio with Tadalafil,[3]; Tadalafil 3.7 μM vs DMSO,2.0
same,MFI,[3]; Tadalafil 3.7 μM,14097
same,Stabilization ratio with Tadalafil,[3]; Tadalafil 11.11 μM vs DMSO,3.8
same,MFI,[3]; Tadalafil 11.11 μM,26560
same,Stabilization ratio with Tadalafil,[3]; Tadalafil 33.33 μM vs DMSO,7.2
same,MFI,[3]; Tadalafil 33.33 μM,49889
same,Stabilization ratio with Tadalafil,[3]; Tadalafil 100 μM vs DMSO,9.9
same,MFI,[3]; Tadalafil 100 μM,68532
